Changes are numbered by the printed parent chain.
Key:
ABCG2 [1] = target: T1, ABCG2 (Homo sapiens, UniProt Q9UNQ0, R482T); test: [3H]-mitoxantrone accumulation in transfected cells; format: cell-based
T1 sequence (Q9UNQ0 1-655 R482T): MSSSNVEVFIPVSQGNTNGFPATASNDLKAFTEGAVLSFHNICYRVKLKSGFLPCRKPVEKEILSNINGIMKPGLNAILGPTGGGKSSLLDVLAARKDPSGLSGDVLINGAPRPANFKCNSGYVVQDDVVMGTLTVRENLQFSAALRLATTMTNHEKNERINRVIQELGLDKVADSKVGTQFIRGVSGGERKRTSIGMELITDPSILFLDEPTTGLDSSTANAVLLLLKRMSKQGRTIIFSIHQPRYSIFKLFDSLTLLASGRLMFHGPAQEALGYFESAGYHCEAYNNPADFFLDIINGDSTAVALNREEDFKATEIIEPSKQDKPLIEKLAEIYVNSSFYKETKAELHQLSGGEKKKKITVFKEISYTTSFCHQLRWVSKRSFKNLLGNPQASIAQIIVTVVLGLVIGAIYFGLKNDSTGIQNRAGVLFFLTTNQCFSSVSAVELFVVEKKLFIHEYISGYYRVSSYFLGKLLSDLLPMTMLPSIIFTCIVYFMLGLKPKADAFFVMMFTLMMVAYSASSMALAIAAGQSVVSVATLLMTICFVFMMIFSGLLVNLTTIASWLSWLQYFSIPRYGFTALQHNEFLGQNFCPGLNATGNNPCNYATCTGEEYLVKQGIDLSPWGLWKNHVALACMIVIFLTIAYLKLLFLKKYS

ABCG2 [2] = target: T2, ABCG2 (Homo sapiens, UniProt Q9UNQ0, R482G); test: as above; format: cell-based
T2 sequence (Q9UNQ0 1-655 R482G): T1 sequence (Q9UNQ0 1-655 R482T) with T482G

ABCG2 [3] = target: T3, ABCG2 (Homo sapiens, UniProt Q9UNQ0); test: inhibition of […]-IAAP photoaffinity labeling in membranes; format: binding
T3 sequence (Q9UNQ0 1-655): T1 sequence (Q9UNQ0 1-655 R482T) with T482R

C[C@@H]1COC(Nc2ccc3ncnc(Nc4ccc(OCc5nccs5)c(Cl)c4)c3c2)=N1 [ARRY-334543]
[3H]-mitoxantrone accumulation in transfected cells (0.25 and 1.0 μM) (ABCG2 [1]): significantly increased intracellular levels of [^3H]-MX in the NCI-H460, NCI-H460/MX20, ABCG2-482-R2, ABCG2-482-G2, and ABCG2-482-T7 cells | [3H]-mitoxantrone accumulation in transfected cells (0.25 and 1.0 μM) (ABCG2 [2]): significantly increased intracellular levels of [^3H]-MX in the NCI-H460, NCI-H460/MX20, ABCG2-482-R2, ABCG2-482-G2, and ABCG2-482-T7 cells | IC50 (ABCG2 [3]): 3.7 µM

From paper PMC4086246 (Journal of cellular biochemistry, 2014)
